Measurements published in paper PMC10424176, “Chamelogk: A Chromatographic Chameleonicity Quantifier to Design Orally Bioavailable Beyond-Rule-of-5 Drugs” (Journal of Medicinal Chemistry, 2023).
“Also recorded” adds a separate entry of the source. Read-outs that look alike come from different tables or passages of the source.

Legend:
[1] = solubility range class; cited from earlier work
[2] = physchem; assay type: physicochemical
Method: (§1) The mobile phases for every descriptor consisted of isocratic solutions of 20 mM ammonium acetate at pH 7.0 and acetonitrile at various percentages (see the specific descriptor). Small amounts of the 55 compounds were dissolved in buffer/acetonitrile mixtures (v/v) at concentrations ranging from 50 to 100 μg/mL. Subsequently, 10 μL of each solution (injection volume) was injected at an isocratic flow rate of 1 mL/min and analyzed at 30 °C (oven temperature). Chromatographic measurements were then analyzed in duplicate based on the specific chromatographic conditions of each descriptor.
BRlogD[39] required the injection of 55 samples into the X-Bridge column at 60% MeCN (predominant mobile phase constituent). The retention times and dead time (t0, baseline interference) were recorded, and the capacity factor log k’60 was calculated adapting eq 2. Lastly, BRlogD value was calculated from eq 3 [drawing 3] 3

[3] = Chamelogk, chromatographic chameleonicity descriptor (PLRP-S RP-HPLC); assay type: physicochemical; conditions: Exp. minus Ext. log k' PLRP-S at 100% MeCN; linear fit at 50, 60, 70% MeCN; 20 mM ammonium acetate pH 7.0; 30 °C
[4] = log kW^IAM and Δ log kW^IAM (IAM chromatography); assay type: physicochemical; conditions: for log kW^IAM: IAM column, extrapolated to 100% buffer from 10 to 50% MeCN, pH 7.0; for Δ log kW^IAM: polarity, from log kW^IAM and BRlogD (eq 4, 5)
Method: as §1, with “descriptor. […] The retention times of the samples were recorded, and the capacity factor was calculated for each mobile phase condition adapting eq 2, where t0 is the retention time of citric acid.” for “descriptor.”

[5] = oral activity; cited from earlier work
[6] = difference between maximum and minimum 3D-PSA among crystallized conformers; cited from earlier work
[7] = cited from earlier work
[8] = XBridge column, 60% MeCN, pH 7.0, read-out: BRlogD
[9] = XBridge Shield RP18 HPLC column, XBridge column, 60% MeCN, pH 7.0, read-out: BRlogD

SMILES	Chamelogk [3]	log kW^IAM [4]	Δ log kW^IAM [4]	chromatographic logD [2, 9]	BRlogD ([2]; XBridge column, 60% MeCN, pH 7.0)	BRlogD ([2]; pH 7)	LogS [1]	chromatographic logD [2, 8]	Abs. Route [5]	chromatographic logD ([2]; pH 7)	X-Ray Δ 3D-PSA [6]	ChameLogD [7]
Cc1sc2c(c1C)C(c1ccc(Cl)cc1)=N[C@@H](CC(=O)Nc1ccc(OCCOCCOCCOCCNc3cccc4c3C(=O)N(C3CCC(=O)NC3=O)C4=O)cc1)c1nnc(C)n1-2 (stereo partly drawn) [ARV-825]	0.72	3.49	1.31				Low range	3.49	orally active			
Cc1ncsc1-c1ccc(CNC(=O)[C@@H]2C[C@@H](O)CN2C(=O)[C@@H](NC(=O)COCCOCCOCCNC(=O)C[C@@H]2N=C(c3ccc(Cl)cc3)c3c(sc(C)c3C)-n3c(C)nnc32)C(C)(C)C)cc1 [MZ1]	1.15	2.83	2.24				Int. range		not orally bioavailable; also recorded: Non-oral	1.77		
COC(=O)N[C@H](C(=O)N[C@@H](Cc1ccccc1)[C@@H](O)CN(Cc1ccc(-c2ccccn2)cc1)NC(=O)[C@@H](NC(=O)OC)C(C)(C)C)C(C)(C)C [atazanavir]	0.33	2.74	0.87	3.15							34	1.6
Cc1ncsc1-c1ccc(CNC(=O)[C@@H]2C[C@H](O)CN2C(=O)[C@@H](NC(=O)COCCOCCOCCNC(=O)C[C@@H]2N=C(c3ccc(Cl)cc3)c3c(sc(C)c3C)-n3c(C)nnc32)C(C)(C)C)cc1 [cisMZ1]	1.27	2.90	2.20				Int. range		Non-oral	1.87		
CC(C)(C)NC(=O)[C@@H]1C[C@@H]2CCCC[C@@H]2CN1C[C@@H](O)[C@H](Cc1ccccc1)NC(=O)[C@H](CC(N)=O)NC(=O)c1ccc2ccccc2n1 [saquinavir]	1.23	3.44	1.85			2.85					21	
CCC[C@H](NC(=O)[C@@H]1[C@H]2CCC[C@H]2CN1C(=O)[C@@H](NC(=O)[C@@H](NC(=O)c1cnccn1)C1CCCCC1)C(C)(C)C)C(=O)C(=O)NC1CC1 [telaprevir]	0.31	3.02	0.75					3.6			32	

Further lines, with some results ahead:

Chamelogk [3]	log kW^IAM [4]	Δ log kW^IAM [4]	chromatographic logD [2, 9]	BRlogD ([2]; XBridge column, 60% MeCN, pH 7.0)	BRlogD ([2]; pH 7)	SMILES	LogS [1]	chromatographic logD [2, 8]	Abs. Route [5]	chromatographic logD ([2]; pH 7)	X-Ray Δ 3D-PSA [6]	ChameLogD [7]
0.74	2.69	-0.63	4.73	below 5		Cc1c(O)cccc1C(=O)N[C@@H](CSc1ccccc1)[C@H](O)CN1C[C@H]2CCCC[C@H]2C[C@H]1C(=O)NC(C)(C)C [nelfinavir]						1.4
0.67	3.02	1.02				CC(C)c1nc(CN(C)C(=O)N[C@H](C(=O)N[C@@H](Cc2ccccc2)C[C@H](O)[C@H](Cc2ccccc2)NC(=O)OCc2cncs2)C(C)C)cs1 [ritonavir]				3.29	53	1.6
0.25	3.96	0.42				CO[C@H]1C[C@@H]2CC[C@@H](C)[C@@](O)(O2)C(=O)C(=O)N2CCCC[C@H]2C(=O)O[C@H]([C@H](C)C[C@@H]2CC[C@@H](O)[C@H](OC)C2)CC(=O)[C@H](C)/C=C(\C)[C@@H](O)[C@@H](OC)C(=O)[C@H](C)C[C@H](C)/C=C/C=C/C=C/1C [sirolimus]				4.97		1.4
